The record followed here is article PMC8877094, “Antiparasitic Ovalicin Derivatives from Pseudallescheria boydii, a Mutualistic Fungus of French Guiana Termites” (Molecules, 2022).

Read-outs that look alike come from different tables or passages of the source.

Format in all cases: cell-based
The test system of experiment [1] is Trypanosoma brucei brucei strain 93 bloodstream forms. Nature of the experiment: In vitro inhibition of T. brucei brucei growth (AlamarBlue/resazurin). Conditions: bloodstream forms strain 93, 72 h incubation + 4 h resazurin, mean ± SD of three independent experiments. As for the experimental part: Bloodstream forms of Trypanosoma brucei brucei strain 93 were cultured in HMI9 medium supplemented with 10% FCS at 37 °C under an atmosphere of 5% CO2. In all experiments, log-phage cell cultures were harvested by centrifugation at 3000× g and immediately used. Drug assays were based on the conversion of a redox-sensitive dye (resazurin) to a fluorescent product by viable cells and were performed according to the manufacturer recommendations (AlamarBlue® Assay, Invitrogen Corporation, Carlsbad, CA, USA). Drug stock solutions were prepared in pure DMSO. […] After a 72 h incubation, resazurin solution was added to each well at with a final concentration of 45 μM. Fluorescence was measured at 530 nm excitation and 590 nm emission wavelengths after a further 4 h incubation. The percentage of inhibition of the parasite growth rate was calculated by comparing the fluorescence of parasites maintained in the presence of drug with that in the absence of drug. DMSO was used as control. […] IC50s were determined from the dose–response curves with drug concentrations ranging from 100 μM to 50 nM. The IC50 value is the mean ± the standard deviation of three independent experiments.

The subject of experiment [2] is Human umbilical vein endothelial cells (HUVECs). Nature of the experiment: Cytotoxic assay on HUVECs (CellTiter-Blue). As to conditions: HUVEC, read-out: HUVECs (IC50 µM). Here is the method:
Human umbilical vein endothelial cells (HUVECs) were obtained from Clonetics (Lonza; Walkersville, MD, USA) and cultured according to the supplier’s instructions. Briefly, HUVECs from three to six passages were subcultured to confluence onto 0.2% gelatin-coated tissue culture flasks in endothelial cell growth medium (EGM2) containing growth factors and 2% FCS. All cell lines were maintained at 37 °C in a humidified atmosphere containing 5% CO2. Cell viability was assessed using Promega (Promega France, Charbonnière-les-Bains, France) CellTiter-BlueTM reagent according to the manufacturer’s instructions. Cells were seeded in 96-well plates (5 × 10^3 cells per well) containing […] growth medium. After 24 h of culture, the cells were supplemented with […] of test compound dissolved in DMSO (<0.1% in each preparation). After incubation for 72 h, […] resazurin was added for 2 h before recording fluorescence (λex = 560 nm, λem = 590 nm) using a Victor microtiter plate fluorimeter (PerkinElmer France, Villebon-sur-Yvette, France). IC50 values correspond to the concentration of test compound that elicited a 50% decrease in fluorescence for drug-treated cells relative to untreated cells. Experiments were performed in triplicate.
For orientation: The colour change of resazurin is a common sign of viable cells or microbes.

For experiment [3], the system named is Plasmodium falciparum FcB1/Colombia strain. Nature of the experiment: In vitro growth inhibition of chloroquine-resistant P. falciparum ([3H]-hypoxanthine incorporation). As to conditions: FCB1, Erythrocyte, 48 h. Here is the method:
The FcB1/Colombian strain of Plasmodium falciparum was maintained in vitro in human erythrocytes in an RPMI 1640 reaction mixture supplemented with 8% (v/v) heat-inactivated human serum at 37 °C under an atmosphere of 3% CO2, 6% O2, and 91% N2. The chloroquine-resistant strain FcB1/Colombia of Plasmodium falciparum was obtained from the National Museum Natural History collection, Paris, France (n°MNHN-CEU-224-PfFCB1). Parasites were maintained in vitro on human A+ erythrocytes in RPMI 1640 medium supplemented by 8% (v/v) heat-inactivated human serum at 37 °C under an atmosphere of 3% CO2, 6% O2, and 91% N2. Human red blood cells and serum were provided by the Etablissement Français du Sang, Ile de France (EFS, Paris, France) under the C-CPSL-UNT approval n°13/EFS/126. In vitro drug susceptibility assays were measured by [^3H]-hypoxanthine incorporation as described previously. Drug solutions were prepared in DMSO at a 10 mM concentration. Compounds were serially diluted 2-fold with 100 μL culture medium in 96-well plates. Asynchronous parasite cultures (100 μL, 1% parasitemia and 1% final hematocrit) were then added to each well and incubated for 24 h at 37 °C prior to the addition of 0.5 μCi of [^3H]-hypoxanthine (GE Healthcare, Tremblay-en-France, France, 1 to 5 Ci·mmol/mL) per well. After a further incubation of 24 h, plates were frozen and thawed. Cell lysates were then collected onto fiberglass filters and counted in a liquid scintillation spectrometer. The growth inhibition for each drug concentration was determined by comparison of the radioactivity incorporated in the treated culture with that in the control culture maintained on the same plate. The concentration causing 50% growth inhibition (IC50) was obtained from the drug concentration–response curve, and the results are expressed as the mean values ± standard deviations determined from several independent experiments.

Setting [4] is: cell viability, 72 h incubation, CellTiter-Blue, triplicate.
Where [5] appears, read: chloroquine-resistant FcB1/Colombia strain, human erythrocytes, 24 h + 24 h with [3H]-hypoxanthine, mean ± SD, read-out: P. falciparum (IC50 µM).

In the case of `N=C(N)c1ccc(OCCCCCOc2ccc(C(=N)N)cc2)cc1` [Pentamidine, reference compound], the IC50 in experiment [1] turned out to be 0.011 ± 0.0017 µM.

For the compound `CCCCCCCC/C=C\CCCCCCCC(=O)OC[C@@]1(O)CCC(=O)[C@@H](OC)[C@]1(O)[C@@]1(C)O[C@@H]1CC=C(C)C` [Compound 3, Ovalicin oleate], the IC50 in experiment [2] (setting [4]) is 45 ± 2 µM; in experiment [1] (72 h) it was 4.8 ± 2.7 µM; in experiment [3] (setting [5]), more than 50 µM.

Take `CO[C@@H]1[C@H](OC(=O)/C=C/C=C/C=C/C=C/C(=O)O)CC[C@]2(CO2)[C@H]1[C@@]1(C)O[C@@H]1CC=C(C)C` [Fumagillin, reference compound]: the IC50 in experiment [2] (72 h) is 0.006 ± 0.002 µM.

As to `CO[C@@H]1C(=O)CC[C@]2(CO2)[C@@]1(O)[C@@]1(C)O[C@@H]1CC=C(C)C` [Compound 1, Ovalicin], the IC50 is 13 ± 2 µM in experiment [2] (setting [4]) and less than 20.6 µM in experiment [3] (read-out: P. falciparum (IC50 µM), chloroquine-resistant FcB1/Colombia strain, human erythrocytes, 24 h + 24 h with [3H]-hypoxanthine, mean ± SD).

Turning to `CCCCCCCCCCCCCCCCCC(=O)OC[C@@]1(O)CCC(=O)[C@@H](OC)[C@]1(O)[C@@]1(C)O[C@@H]1CC=C(C)C` [Compound 4], the IC50 in experiment [2] (setting [4]) is 70 ± 1 µM; in experiment [1] (72 h), 4.1 ± 2.1 µM; in experiment [3] (setting [5]), less than 20.6 µM.

Take `CCCCC/C=C\C/C=C\CCCCCCCC(=O)OC[C@@]1(O)CCC(=O)[C@@H](OC)[C@]1(O)[C@@]1(C)O[C@@H]1CC=C(C)C` [Compound 2, Ovalicin linoleate]: the IC50 in experiment [2] (setting [4]) was 37 ± 3 µM; in experiment [1] (72 h), less than 1.1 µM; in experiment [3] (setting [5]) it was less than 20.6 µM.
